Source: US20220257571A1, “INHIBITOR OF MAP KINASE INTERACTING SERINE/THREONINE KINASE 1 (MNK1) AND MAP KINASE INTERACTING SERINE/THREONINE KINASE 2 (MNK2), CANCER THERAPY AND THERAPEUTIC COMBINATIONS” (FUNPACIÓ HOSPITAL UNIVERSITARI VALL D'HEBRON - INSTITUT DE …, priority 2019, published 2022)

Columns and labels:
MDA-MB-231 cells = assay: in vitro proliferation assay (crystal violet), MDA-MB-231; assay type: cell-based, human; details: tumour cells MDA-MB-231, concentrations necessary to inhibit MNK activity
Description: (§1) Commercially available MDA-MB-231, MDA-MB-468, MCF7 and A375M, IMR90 (IMR-90 (ATCC® CCL-186TH) cells were grown at 37° C. and 5% CO2 in DMEM medium (Dulbecco's Modified Eagle Medium, 4.5 g/I glucose; 30 mg/I L-Glutamine (Gibco)) supplemented with 10% foetal bovine serum, 100 U/ml penicillin and 100 μg/ml streptomycin.
In 96-well plates, 5000 cells were seeded for each condition. After 24 h, the cells were treated with the compound at the corresponding concentration. The stocks of compounds were prepared in 100% DMSO at a concentration 200 times more concentrated than the treatment concentration. Thus, in all cases, the final concentration of DMSO in the medium is 0.5%. After incubation, the medium was removed and the cells were fixed with 4% PFA (100 μl per well) for 30 minutes. Two washes with PBS were performed.
Cells were stained with crystal violet (0.5% in EtOH): 100 μl were added to each well, stirred for 15 minutes, washed with water and left to dry. The content of each well was dissolved in 200 μl of 15% AcOH and the absorbance thereof was measured at 595 nm.

[1] = system: PD-L1 in MDA-MB-231 cells; assay: PD-L1 levels by western blot in MDA-MB-231 cells; assay type: cell-based, human
Description: MDA-MB-231 cells were treated for 48 h with the indicated concentrations of the inhibitors. DMSO was used as vehicle control. Protein extracts were prepared and western blot analysis were carried out. Data are depicted in FIG. 10.

[2] = system: eIF4E phosphorylation, AR and AR-V7 in 22Rv1 cells; assay: western blot analysis in 22Rv1 cells; assay type: cell-based; details: for levels of AR, AR-V7 and eIF4E phosphorylation: 22Rv1, 72 h
[3] = target: T1, EphA4 receptor tyrosine kinase (Homo sapiens, UniProt P54764); assay: inhibitory test of EphA4 in the kinase panel; assay type: biochemical
T1 construct: purchased Proqinase
T1 sequence (P54764 20-986): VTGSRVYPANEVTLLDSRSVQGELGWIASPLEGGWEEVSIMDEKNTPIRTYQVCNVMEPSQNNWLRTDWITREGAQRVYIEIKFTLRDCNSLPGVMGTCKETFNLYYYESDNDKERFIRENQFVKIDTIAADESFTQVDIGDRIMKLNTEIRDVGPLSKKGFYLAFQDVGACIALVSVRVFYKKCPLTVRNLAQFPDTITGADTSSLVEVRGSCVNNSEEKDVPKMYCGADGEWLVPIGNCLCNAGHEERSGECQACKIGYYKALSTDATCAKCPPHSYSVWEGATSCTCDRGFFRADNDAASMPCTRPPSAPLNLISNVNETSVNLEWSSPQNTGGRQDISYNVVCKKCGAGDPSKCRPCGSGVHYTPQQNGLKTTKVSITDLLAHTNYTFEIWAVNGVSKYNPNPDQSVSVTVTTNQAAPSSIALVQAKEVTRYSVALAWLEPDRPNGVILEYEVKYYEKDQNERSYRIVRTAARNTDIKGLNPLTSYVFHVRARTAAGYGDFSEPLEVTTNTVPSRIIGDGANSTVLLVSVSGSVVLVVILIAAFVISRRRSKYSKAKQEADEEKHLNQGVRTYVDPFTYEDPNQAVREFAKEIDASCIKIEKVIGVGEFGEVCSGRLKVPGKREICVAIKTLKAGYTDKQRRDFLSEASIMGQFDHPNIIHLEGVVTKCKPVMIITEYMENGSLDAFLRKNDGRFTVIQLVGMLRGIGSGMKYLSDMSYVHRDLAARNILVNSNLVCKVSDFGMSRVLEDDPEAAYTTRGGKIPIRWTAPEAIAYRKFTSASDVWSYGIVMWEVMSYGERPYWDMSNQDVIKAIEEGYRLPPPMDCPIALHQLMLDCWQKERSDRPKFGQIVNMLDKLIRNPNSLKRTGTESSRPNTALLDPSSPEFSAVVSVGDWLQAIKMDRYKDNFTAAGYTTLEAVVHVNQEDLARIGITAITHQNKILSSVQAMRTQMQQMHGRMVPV
Description: (§2) The kinase activity of the compound was measured by a radiometric kinase assay (^33PanQinase® Activity Assay) carried out by Proqinase (www.proqinase.com).
(§3) The assays were carried out in 96-well FlashPlates™ by PerkinElmer (Boston, Mass., USA) with a reaction volume of 50 μl. The reaction cocktail was pipetted in 4 steps: (1) 20 μl buffer, (2) 5 μl ATP solution (in H2O), (3) 5 μl compound (in 10% DMSO) and (4) 20 μl enzyme/substrate mixture. Lastly, the cocktail contained 70 mM HEPES-NaOH pH 7.5, 3 mM MgCl2, 3 mM MnCl2, 3 μM sodium orthovanadate, 1.2 mM DTT, 50 μg/ml PEG20000, ATP (1 μM for MNK1 and 0.3 μM for MNK2), [γ-^33P]-ATP (approx. […] per well), protein kinase (variable amounts depending on the batch) and substrate (2 μg/50 μl).
(§4) Reaction cocktails were incubated at 30° C. for 60 minutes. The reaction was stopped with 50 μl of 2% H3PO4 (v/v), the plates were sucked, they were washed twice with 200 μl of 0.9% NaCl (w/v) and the incorporation of ^33Pi (MicroBeta microplate scintillation counter, Wallac) was determined. […]
(§5) The residual activity (in %) for each well of a particular plate was calculated using the following formula (wherein high control is the kinase activity in absence of an inhibitor and low control is the radioactivity value of the substrate in absence of a kinase).
(§6) To study selectivity, residual activity was measured at 1 μM from a 320-kinase panel.

[4] = system: eIF4E phosphorylation in breast cancer cells (MDA-MB-468); assay: titration of eIF4E phosphorylation in MDA-MB-468 cells; assay type: cell-based
Description: as §1
Inhibition of eIF4E phosphorylation was quantified by Western Blot. Cells were seeded in 60 mm plates (700,000 cells for 24 h, 500,000 cells for 48 h and 300,000 cells for 72 h).
After 24 h, the treatments were added. The stocks of compounds were prepared in […] at a concentration 200 times more concentrated than the treatment concentration. Thus, in all cases, the final concentration of DMSO in the medium was 0.5%.
After incubation, proteins were removed and Western Blot was performed. On ice, the plates were washed with PBS and the cells were lysed with 60 μl lysis buffer (50 mM Tris, 200 mM NaCl, 5 mM EDTA, 0.1% Triton 100×, pH 7.5 supplemented with protease inhibitors (EDTA-free Protease Inhibitor Cocktail Set III, Calbiochem) and phosphatase inhibitors (Phosphatase Inhibitor Cocktail Set II, Calbiochem)). The samples were centrifuged at 15,000 g and the supernatant was quantified by the Bradford method. […] Selectivity against MNK was analysed with ERK, p-ERK, MNK1, p-MNK1, 4EBP1 and p-4EBP1 antibodies. […]

320-kinase panel = assay: selectivity on a 320-kinase panel; assay type: biochemical; details: 1 μM
Description: as §2, §3, §4, §5, §6

[5] = system: 22Rv1 castration resistant prostate cancer cells; assay: cell viability of 22Rv1 cells, EB1 with Enzalutamide; assay type: cell-based; details: 22Rv1, co-treatment with Enzalutamide, 72 h
Description: Cell viability under combined inhibition of AR and eIF4E phosphorylation was assayed. […] (B) Number of viable cells after 72 h treatment with pairwise combinations reported as percentage relative to control. (E) Cell viability data presented as a grid displaying the percentage of affected cells by each pairwise combination of drug doses. (C) Drug combinations with the strongest inhibition in cell viability (bars; mean±SEM; n=3. *p<0.05, **p<0.01 two-tailed Student's test). (F) Combination index (CI) presented as a grid for each pairwise combination of drug doses calculated by the Chou-Talalay method at non-constant ratio. (D and I) Fraction affected vs. combination index (CI) plots.

Nc1n[nH]c2nc(-c3ccccc3)cc(-c3ccccc3)c12 [EB1, 4,6-diphenyl-1H-pyrazolo[3,4-b]pyridin-3-amine]
effect on cell growth (MDA-MB-231 cells): does not affect the cell growth
levels of PD-L1 ([1]; MDA-MB-231, 48 h): reduces levels of PD-L1
potency on PD-L1 compared with eFT508 and CGP57380 ([1]; at comparable inhibition rates of eIF4E phosphorylation): equally potent or superior
inhibition of eIF4E phosphorylation ([2]; 22Rv1, 24 h EB1 treatment): Dose dependent inhibition
levels of AR, AR-V7 and eIF4E phosphorylation ([2]; EB1 alone): reduction of AR, its splice variant AR-V7 and eIF4E phosphorylation
levels of AR, AR-V7 and eIF4E phosphorylation ([2]; combination of EB1 and enzalutamide): more pronounced
inhibition at 1 µM [3]: 10%
activity as MNK inhibitor (eIF4E phosphorylation) [4]: active
number of other kinases affected in an equivalent manner (320-kinase panel): 16
effect of co-treatment on cell viability [5]: synergistic effect
